# In PubChem BioAssay AID1963862 (Molecular Pharmacology Branch, DTP, NCI, 2024):
# Values joined by “and” are separate entries in the source; they are usually repeats but may differ in a detail not shown here. Identical values can stand only once.
# System: KRAS patient-derived spheroids with HUVEC/MSC, viability
# Experiment: Anticancer human tumor 941728-121-R-J1-PDC patient-derived lung adenocarcinoma cell line growth inhibition [KRAS2]
# Conditions: for viability, T/C: stronger effect = lower value
# Method in brief: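 KRAS-mutant tumor cells were grown as spheroids with HUVEC endothelial cells and human MSCs as stroma. Targeted agents were tested alone and with KRAS pathway inhibitors. Doses started at or near clinical Cmax, or 10 microM, descending half-log.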
# [1] = curve of first compound, second compound 0.1 µM
# [2] = curve of first compound, second compound 0.316 µM
# [3] = curve of first compound, second compound 1 µM
# [4] = curve of first compound, second compound 3.16 µM
# [5] = curve of first compound, second compound 10 µM
# [6] = second compound 0.1 µM, first compound 0.00316 µM
# [7] = second compound 0.1 µM, first compound 0.01 µM
# [8] = second compound 0.1 µM, first compound 0.0316 µM
# [9] = second compound 0.1 µM, first compound 0.1 µM
# [10] = second compound 0.316 µM, first compound 0.00316 µM
# [11] = second compound 0.316 µM, first compound 0.01 µM
# [12] = second compound 0.316 µM, first compound 0.0316 µM
# [13] = second compound 0.316 µM, first compound 0.1 µM
# [14] = second compound 1 µM, first compound 0.00316 µM
# [15] = second compound 1 µM, first compound 0.01 µM
# [16] = second compound 1 µM, first compound 0.0316 µM
# [17] = second compound 1 µM, first compound 0.1 µM
# [18] = second compound 3.16 µM, first compound 0.00316 µM
# [19] = second compound 3.16 µM, first compound 0.01 µM
# [20] = second compound 3.16 µM, first compound 0.0316 µM
# [21] = second compound 3.16 µM, first compound 0.1 µM
# [22] = second compound 10 µM, first compound 0.01 µM
# [23] = second compound 10 µM, first compound 0.0316 µM
# [24] = second compound 10 µM, first compound 0.1 µM
# [25] = second compound 0.1 µM, first compound 0.316 µM
# [26] = second compound 0.1 µM, first compound 1 µM
# [27] = second compound 0.1 µM, first compound 3.16 µM
# [28] = second compound 0.316 µM, first compound 0.316 µM
# [29] = second compound 0.316 µM, first compound 1 µM
# [30] = second compound 0.316 µM, first compound 3.16 µM
# [31] = second compound 1 µM, first compound 0.316 µM
# [32] = second compound 1 µM, first compound 1 µM
# [33] = second compound 1 µM, first compound 3.16 µM
# [34] = second compound 3.16 µM, first compound 0.316 µM
# [35] = second compound 3.16 µM, first compound 1 µM
# [36] = second compound 3.16 µM, first compound 3.16 µM
# [37] = second compound 10 µM, first compound 0.316 µM
# [38] = second compound 10 µM, first compound 1 µM
# [39] = second compound 10 µM, first compound 3.16 µM
# 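Also: spheroids exposed to agents for seven days before readout.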
smiles,measurement,setting,value
CC(C)n1nc(-c2ccc3oc(N)nc3c2)c2c(N)ncnc21 + CC1OCC2(CCN(c3cnc(Sc4ccnc(N)c4Cl)c(N)n3)CC2)C1N,IC50,[1],< 0.316 nM
same,IC50,[2],< 0.316 nM
same,IC50,[3],< 0.316 nM
same,IC50,[4],< 0.316 nM
same,IC50,[5],< 0.316 nM
same,"viability, T/C","second compound 0.1 µM, first compound 0.000316 µM",40.7%
same,"viability, T/C","second compound 0.1 µM, first compound 0.001 µM",30.6%
same,"viability, T/C",[6],17.2%
same,"viability, T/C",[7],12.1%
same,"viability, T/C",[8],8.84%
same,"viability, T/C",[9],6.47%
same,"viability, T/C","second compound 0.316 µM, first compound 0.000316 µM",31%
same,"viability, T/C","second compound 0.316 µM, first compound 0.001 µM",24.8%
same,"viability, T/C",[10],16.8%
same,"viability, T/C",[11],11.5%
same,"viability, T/C",[12],9.93%
same,"viability, T/C",[13],5.71%
same,"viability, T/C","second compound 1 µM, first compound 0.000316 µM",25.2%
same,"viability, T/C","second compound 1 µM, first compound 0.001 µM",20.3%
same,"viability, T/C",[14],12%
same,"viability, T/C",[15],8.84%
same,"viability, T/C",[16],8.27%
same,"viability, T/C",[17],5.69%
same,"viability, T/C","second compound 3.16 µM, first compound 0.000316 µM",17.6%
same,"viability, T/C","second compound 3.16 µM, first compound 0.001 µM",16.4%
same,"viability, T/C",[18],9.88%
same,"viability, T/C",[19],5.58%
same,"viability, T/C",[20],3.72%
same,"viability, T/C",[21],3.13%
same,"viability, T/C","second compound 10 µM, first compound 0.000316 µM",11.4%
same,"viability, T/C","second compound 10 µM, first compound 0.001 µM",11.2%
same,"viability, T/C","second compound 10 µM, first compound 0.00316 µM",6.08%
same,"viability, T/C",[22],4.41%
same,"viability, T/C",[23],3.77%
same,"viability, T/C",[24],1.91%
CC1COCCN1c1cc(-c2ccnn2C)c2ccnc(-c3ccn[nH]3)c2n1 (stereo unspecified) + CNCc1ccccc1-c1csc(C(C)Nc2nc(C)nc3cc(OC)c(OC)cc23)c1,IC50,[1],23.7 nM
same,IC50,[2],< 10 nM
same,IC50,[3],< 10 nM
same,IC50,[4],< 10 nM
same,IC50,[5],< 10 nM
same,"viability, T/C",[7],63.1%
same,"viability, T/C",[8],43.3%
same,"viability, T/C",[9],39.4%
same,"viability, T/C",[25],31.7%
same,"viability, T/C",[26],28.2%
same,"viability, T/C",[27],26.8%
same,"viability, T/C",[11],41.5%
same,"viability, T/C",[12],37.1%
same,"viability, T/C",[13],29%
same,"viability, T/C",[28],22.8%
same,"viability, T/C",[29],22.9%
same,"viability, T/C",[30],22.6%
same,"viability, T/C",[15],24.9%
same,"viability, T/C",[16],29.4%
same,"viability, T/C",[17],18.8%
same,"viability, T/C",[31],19%
same,"viability, T/C",[32],14%
same,"viability, T/C",[33],11.4%
same,"viability, T/C",[19],1.36%
same,"viability, T/C",[20],1.18%
same,"viability, T/C",[21],1.37%
same,"viability, T/C",[34],0.47%
same,"viability, T/C",[35],0.45%
same,"viability, T/C",[36],0.62%
same,"viability, T/C",[22],0.73%
same,"viability, T/C",[23],0.11%
same,"viability, T/C",[24],0.25%
same,"viability, T/C",[37],0.12%
same,"viability, T/C",[38],0.14%
same,"viability, T/C",[39],0.17%
CC1OCC2(CCN(c3cnc(Sc4ccnc(N)c4Cl)c(N)n3)CC2)C1N (stereo unspecified),"viability, T/C",compound 0.0316 µM,71% and 57.9% and 63.9%
same,"viability, T/C",compound 0.1 µM,48.3% [middle of 19 runs]
same,"viability, T/C",compound 0.316 µM,38% [middle of 19 runs]
same,"viability, T/C",compound 3.16 µM,29.8% [middle of 20 runs]
same,IC50,"compound alone, run of 07/19/2021",< 100 nM
same,IC50,curve of compound,141 nM [middle of 5 runs]
COC(=O)c1ccc2c(C(=Nc3ccc(N(C)C(=O)CN4CCN(C)CC4)cc3)c3ccccc3)c(O)[nH]c2c1 + CNCc1ccccc1-c1csc(C(C)Nc2nc(C)nc3cc(OC)c(OC)cc23)c1,IC50,[1],1740 nM
same,IC50,[2],< 31.6 nM
same,IC50,[3],< 31.6 nM
same,IC50,[4],< 31.6 nM
same,IC50,[5],< 31.6 nM
same,"viability, T/C",[8],59.9%
same,"viability, T/C",[9],49.5%
same,"viability, T/C",[25],47.1%
same,"viability, T/C",[26],63.4%
same,"viability, T/C",[27],42.4%
same,"viability, T/C","second compound 0.1 µM, first compound 10 µM",35.8%
same,"viability, T/C",[12],46.4%
same,"viability, T/C",[13],44.1%
same,"viability, T/C",[28],41.5%
same,"viability, T/C",[29],35%
same,"viability, T/C",[30],9.64%
same,"viability, T/C","second compound 0.316 µM, first compound 10 µM",20.3%
same,"viability, T/C",[16],22.6%
same,"viability, T/C",[17],24.5%
same,"viability, T/C",[31],19.5%
same,"viability, T/C",[32],25.6%
same,"viability, T/C",[33],3.56%
same,"viability, T/C","second compound 1 µM, first compound 10 µM",5.39%
same,"viability, T/C",[20],0.42%
same,"viability, T/C",[21],0.43%
same,"viability, T/C",[34],0.22%
same,"viability, T/C",[35],0.73%
same,"viability, T/C",[36],0.79%
same,"viability, T/C","second compound 3.16 µM, first compound 10 µM",0.62%
same,"viability, T/C",[23],0.47%
same,"viability, T/C",[24],0.1%
same,"viability, T/C",[37],0.08%
same,"viability, T/C",[38],0.1%
same,"viability, T/C",[39],0.11%
same,"viability, T/C","second compound 10 µM, first compound 10 µM",0.15%
CCN1CCN(Cc2ccc(Nc3ncc(F)c(-c4cc(F)c5nc(C)n(C(C)C)c5c4)n3)nc2)CC1 + C=CC(=O)N1CCN(c2nc(OCC3CCCN3C)nc3c2CCN(c2cccc4cccc(C)c24)C3)CC1CC#N,IC50,"curve of first compound, second compound 0.0316 µM",< 3.16 nM
same,IC50,[1],< 3.16 nM
same,IC50,[2],< 3.16 nM
same,IC50,[3],< 3.16 nM
same,IC50,[4],< 3.16 nM
same,"viability, T/C","second compound 0.0316 µM, first compound 0.00316 µM",24.3%
same,"viability, T/C","second compound 0.0316 µM, first compound 0.01 µM",25.6%
same,"viability, T/C","second compound 0.0316 µM, first compound 0.0316 µM",23.5%
same,"viability, T/C","second compound 0.0316 µM, first compound 0.1 µM",25.4%
same,"viability, T/C","second compound 0.0316 µM, first compound 0.316 µM",26.3%
same,"viability, T/C","second compound 0.0316 µM, first compound 1 µM",26.9%
same,"viability, T/C",[6],20.9%
same,"viability, T/C",[7],21.3%
same,"viability, T/C",[8],18.9%
same,"viability, T/C",[9],20.8%
same,"viability, T/C",[25],18.1%
same,"viability, T/C",[26],23.5%
same,"viability, T/C",[10],21%
same,"viability, T/C",[11],21.2%
same,"viability, T/C",[12],19.1%
same,"viability, T/C",[13],20.2%
same,"viability, T/C",[28],21.1%
same,"viability, T/C",[29],21.6%
same,"viability, T/C",[14],21.3%
same,"viability, T/C",[15],21.4%
same,"viability, T/C",[16],20.1%
same,"viability, T/C",[17],18.4%
same,"viability, T/C",[31],19.4%
same,"viability, T/C",[32],20%
same,"viability, T/C",[18],1.17%
same,"viability, T/C",[19],1.06%
same,"viability, T/C",[20],0.49%
same,"viability, T/C",[21],0.73%
same,"viability, T/C",[34],0.52%
same,"viability, T/C",[35],0.18%
